According to PubChem BioAssay (NCI):
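Five compound concentrations were applied to cells in 96-well plates for 48 hours; endpoints were derived by simple linear interpolation of the resulting dose-response curve. TGI is the concentration that stops growth completely.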

Assays:
Test in all cases: DTP human tumour cell line panel, 48 h
SK-MEL-28 melanoma = tested on: SK-MEL-28 melanoma
NCI-H460 lung = tested on: NCI-H460 lung
SK-MEL-2 melanoma = tested on: SK-MEL-2 melanoma
OVCAR-5 ovarian = tested on: OVCAR-5 ovarian
MDA-MB-435 = tested on: MDA-MB-435
HOP-92 NSCLC = tested on: HOP-92 NSCLC
RXF 393 renal = tested on: RXF 393 renal
NCI/ADR-RES ovarian = tested on: NCI/ADR-RES ovarian
NCI-H522 lung = tested on: NCI-H522 lung
ACHN renal = tested on: ACHN renal
SK-OV-3 ovarian = tested on: SK-OV-3 ovarian
CAKI-1 renal = tested on: CAKI-1 renal
HCT-116 colon = tested on: HCT-116 colon
U251 CNS = tested on: U251 CNS
SNB-75 CNS = tested on: SNB-75 CNS
SNB-19 CNS = tested on: SNB-19 CNS
TK-10 renal = tested on: TK-10 renal
SW-620 colon = tested on: SW-620 colon
MDA-N = tested on: MDA-N
BT-549 breast = tested on: BT-549 breast
786-0 renal = tested on: 786-0 renal
COLO 205 colon = tested on: COLO 205 colon
CCRF-CEM leukemia = tested on: CCRF-CEM leukemia
DU-145 prostate = tested on: DU-145 prostate
SF-539 CNS = tested on: SF-539 CNS
K-562 leukemia = tested on: K-562 leukemia
M14 melanoma = tested on: M14 melanoma
A498 renal = tested on: A498 renal
MCF7 breast = tested on: MCF7 breast
RPMI-8226 leukemia = tested on: RPMI-8226 leukemia
SK-MEL-5 melanoma = tested on: SK-MEL-5 melanoma
OVCAR-3 ovarian = tested on: OVCAR-3 ovarian
MDA-MB-231 breast = tested on: MDA-MB-231 breast
HL-60(TB) leukemia = tested on: HL-60(TB) leukemia
T-47D breast = tested on: T-47D breast
IGROV1 ovarian = tested on: IGROV1 ovarian
HS 578T breast = tested on: HS 578T breast
OVCAR-8 ovarian = tested on: OVCAR-8 ovarian
SN12C renal = tested on: SN12C renal
HOP-62 NSCLC = tested on: HOP-62 NSCLC
HT29 colon = tested on: HT29 colon
UACC-257 melanoma = tested on: UACC-257 melanoma
EKVX NSCLC = tested on: EKVX NSCLC
UO-31 renal = tested on: UO-31 renal
MALME-3M melanoma = tested on: MALME-3M melanoma
A549 NSCLC = tested on: A549 NSCLC
LOX IMVI melanoma = tested on: LOX IMVI melanoma
HCC-2998 colon = tested on: HCC-2998 colon
OVCAR-4 ovarian = tested on: OVCAR-4 ovarian
SF-268 CNS = tested on: SF-268 CNS
SF-295 CNS = tested on: SF-295 CNS
PC-3 prostate = tested on: PC-3 prostate
MOLT-4 leukemia = tested on: MOLT-4 leukemia
KM12 colon = tested on: KM12 colon
UACC-62 melanoma = tested on: UACC-62 melanoma
NCI-H23 lung = tested on: NCI-H23 lung
NCI-H226 lung = tested on: NCI-H226 lung
HCT-15 colon = tested on: HCT-15 colon

OCCNCNc1nc(NCNCCO)nc(N(CNCCO)CNCCO)n1 gave a TGI (SK-MEL-28 melanoma) of 52.6 µM, a TGI (NCI-H460 lung) of 59.4 µM and a TGI (SK-MEL-2 melanoma) of 40.9 µM. It also gave a TGI (OVCAR-5 ovarian) of 21 µM, a TGI (MDA-MB-435) of 35.8 µM and a TGI (HOP-92 NSCLC) of 51.1 µM. It also gave a TGI (RXF 393 renal) of 31.1 µM, a TGI (NCI/ADR-RES ovarian) of 54 µM and a TGI (NCI-H522 lung) of 41.3 µM. It also gave a TGI (ACHN renal) greater than 68.9 µM, a TGI (SK-OV-3 ovarian) greater than 85.9 µM and a TGI (CAKI-1 renal) of 57.7 µM. For the same compound, the TGI (HCT-116 colon) was 41.5 µM, the TGI (U251 CNS) was 43.7 µM and the TGI (SNB-75 CNS) was 50.6 µM. It also gave a TGI (SNB-19 CNS) of 38.1 µM, a TGI (TK-10 renal) of 72.1 µM and a TGI (SW-620 colon) greater than 54 µM. It also gave a TGI (MDA-N) of 38.4 µM, a TGI (BT-549 breast) of 46 µM and a TGI (786-0 renal) of 36.5 µM. It also gave a TGI (COLO 205 colon) of 30.8 µM, a TGI (CCRF-CEM leukemia) greater than 69.7 µM and a TGI (DU-145 prostate) of 44.3 µM. For the same compound, the TGI (SF-539 CNS) was 41.3 µM, the TGI (K-562 leukemia) was 50.3 µM and the TGI (M14 melanoma) was 36.6 µM. For the same compound, the TGI (A498 renal) was 62 µM, the TGI (MCF7 breast) was greater than 78.9 µM and the TGI (RPMI-8226 leukemia) was greater than 68.2 µM. It also gave a TGI (SK-MEL-5 melanoma) of 28.5 µM, a TGI (OVCAR-3 ovarian) of 58.7 µM and a TGI (MDA-MB-231 breast) of 52.7 µM. It also gave a TGI (HL-60(TB) leukemia) of 63.8 µM, a TGI (T-47D breast) of 61.1 µM and a TGI (IGROV1 ovarian) of 49.4 µM. It also gave a TGI (HS 578T breast) greater than 78.8 µM, a TGI (OVCAR-8 ovarian) of 59.5 µM and a TGI (SN12C renal) of 60.8 µM. The TGI (HOP-62 NSCLC) was 43.2 µM, the TGI (HT29 colon) was 45.8 µM and the TGI (UACC-257 melanoma) was 40 µM. The TGI (EKVX NSCLC) was 57 µM, the TGI (UO-31 renal) was greater than 73.9 µM and the TGI (MALME-3M melanoma) was 33.2 µM. It also gave a TGI (A549 NSCLC) greater than 78.2 µM, a TGI (LOX IMVI melanoma) of 40.2 µM and a TGI (HCC-2998 colon) of 36.4 µM. For the same compound, the TGI (OVCAR-4 ovarian) was greater than 65.4 µM, the TGI (SF-268 CNS) was 60.8 µM and the TGI (SF-295 CNS) was greater than 61.6 µM. It also gave a TGI (PC-3 prostate) of 50 µM, a TGI (MOLT-4 leukemia) of 67.7 µM and a TGI (KM12 colon) greater than 59.5 µM. The TGI (UACC-62 melanoma) was 35.6 µM, the TGI (NCI-H23 lung) was 46.1 µM and the TGI (NCI-H226 lung) was 47.1 µM. For the same compound, the TGI (HCT-15 colon) was 61.6 µM.
